# Reference: US20070249620A1, “Urea Derivative” (priority 2004, published 2007)
# Assays:
# mouse DGAT1 = target: T1, mouse DGAT1 (Mus musculus, UniProt Q9Z2A7); test: DGAT1 inhibitory effect test (microsome fraction, [14C]-oleoyl-CoA, triglyceride radioactivity by TLC); assay type: biochemical; details: 0.5 h; concentration of the test compound 0.1 μg/ml; mouse DGAT1 microsomes, 23° C., 30 minutes; read-out: Inhibitory ratio
# T1 construct: made in house; host or cells: insect cells (High Five, Sf9, Sf21, etc.), baculovirus expression system (Invitrogen)
# T1 sequence (Q9Z2A7 1-498): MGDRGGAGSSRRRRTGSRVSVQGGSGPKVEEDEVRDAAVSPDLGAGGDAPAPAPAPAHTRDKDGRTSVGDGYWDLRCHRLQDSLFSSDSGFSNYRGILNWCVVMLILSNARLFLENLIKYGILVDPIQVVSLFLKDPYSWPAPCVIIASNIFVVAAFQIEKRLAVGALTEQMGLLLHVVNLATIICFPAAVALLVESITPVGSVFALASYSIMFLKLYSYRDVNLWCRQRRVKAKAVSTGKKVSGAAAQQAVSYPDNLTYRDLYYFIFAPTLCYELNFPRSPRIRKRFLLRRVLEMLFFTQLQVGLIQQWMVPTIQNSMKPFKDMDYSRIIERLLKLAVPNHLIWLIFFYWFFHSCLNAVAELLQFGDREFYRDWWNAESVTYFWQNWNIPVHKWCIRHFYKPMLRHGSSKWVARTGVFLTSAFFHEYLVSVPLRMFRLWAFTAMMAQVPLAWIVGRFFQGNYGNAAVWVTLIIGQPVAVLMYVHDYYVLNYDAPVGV
# Description: The cDNA which encodes mouse DGAT1 was cloned from a mouse cDNA library by polymerase chain reaction (hereinafter referred to as “PCR”) and introduced into an insect cell virus vector (baculovirus expression system, Invitrogen). After insect cells (High Five, Sf9, Sf21, etc., Invitrogen) were infected with the virus, the cells were collected in buffer A [0.1M sucrose, 50 mM KCl, 40 mM potassium phosphate (pH 7.4), 30 mM EDTA, 1% Protease inhibitor cocktail (SIGMA, P-8340)] and crushed with a Polytron homogenizer. The supernatant obtained by subjecting the homogenate to low speed centrifugal processing (10,000 ×g, 30 minutes) was further subjected to higher-speed centrifugal processing (100,000 ×g, 60 minutes) and the precipitate was resuspended in buffer A as the microsome fraction and used as DGAT1 enzyme. The DGAT1 enzyme was divided into small volumes and stored at −80° C.
# (2) DGAT1 Inhibitory Effect Test
# The reaction liquid of the following composition [175 mM Tris-HCl (pH 8.0), 8 mM MgCl2, 1 mg/ml BSA, 0.5 mM 1,2-dioleoyl-sn-glycerol (EtOH solution of 10-fold concentration, 10% added), 30 μM[14C]-oleoyl-CoA (about 50 mCi/mmol), 0.5% triton X-100, DGAT1 enzyme (10 μg) obtained in Test Example 1(1), test compound or vehicle (DMSO/MeOH, 7:3 solution, 5% added), total volume 50 μl] was incubated at room temperature (23° C.) for 30 minutes. A reaction terminating solution (70 μl) consisting of isopropanol/1-heptane/water (80:20:2, v/v/v) was added to the reaction solution and stirred, and subsequently stirred with water (30 μl) and 1-heptane (100 μl). The 1-heptane layer (50 μl) was spotted onto a TLC plate and developed with a developing solvent consisting of 1-hexane/diethyl ether/acetic acid (85:15:1, v/v/v). Radioactivity of triglyceride fraction was quantified by BAS2000 bio image analyzer (Fuji Film) and the inhibitory effect of the test compounds was calculated by the following formula through comparison with control. Here, radioactivity at no reaction (0 minutes incubation) was assumed as background. Inhibitory ratio=100−[(Radioactivity when test compound was added)−(Background)]/[(Radioactivity by control)−(Background)]×100
inhibition at 0.1 µg/mL (mouse DGAT1),melting point,SMILES
≥ 50%,181 to 183 °C,"COc1ccc(F)cc1NC(=O)Nc1ccc(N2CCN(C(=O)Nc3c(F)cccc3C(F)(F)F)CC2)cc1 [Example 100, 4-{4-[3-(5-fluoro-2-methoxy-phenyl)-ureido]-phenyl}-piperazine-1-carboxylic acid (2-fluoro-6-trifluoromethyl-phenyl)-amide]"
≥ 50%,235 to 237 °C,"COc1ccc(F)cc1NC(=O)Nc1ccc(N2CCN(C(=O)Nc3c(Cl)cccc3Cl)CC2)cc1 [Example 101, 4-{4-[3-(5-fluoro-2-methoxy-phenyl)-ureido]-phenyl}-piperazine-1-carboxylic acid (2,6-dichloro-phenyl)-amide]"
≥ 50%,219 to 221 °C,"CCOc1ccc(Cl)cc1NC(=O)Nc1ccc(N2CCN(C(=O)Nc3ccccc3C(F)(F)F)CC2)cc1 [Example 102, 4-{4-[3-(5-chloro-2-ethoxy-phenyl)-ureido]-phenyl}-piperazine-1-carboxylic acid (2-trifluoromethyl-phenyl)-amide]"
≥ 50%,159 to 161 °C,"CCOc1ccc(Cl)cc1NC(=O)Nc1ccc(N2CCN(C(=O)Nc3c(C)cccc3Cl)CC2)cc1 [Example 103, 4-{4-[3-(5-chloro-2-ethoxy-phenyl)-ureido]-phenyl}-piperazine-1-carboxylic acid (2-chloro-6-methyl-phenyl)-amide]"
≥ 50%,144 to 146 °C,"CCOc1ccc(Cl)cc1NC(=O)Nc1ccc(N2CCN(C(=O)Nc3c(C)cccc3C)CC2)cc1 [Example 104, 4-{4-[3-(5-chloro-2-ethoxy-phenyl)-ureido]-phenyl}-piperazine-1-carboxylic acid (2,6-dimethyl-phenyl)-amide]"
≥ 50%,146 to 148 °C,"CCOc1ccc(Cl)cc1NC(=O)Nc1ccc(N2CCN(C(=O)Nc3c(F)cccc3C(F)(F)F)CC2)cc1 [Example 105, 4-{4-[3-(5-chloro-2-ethoxy-phenyl)-ureido]-phenyl}-piperazine-1-carboxylic acid (2-fluoro-6-trifluoromethyl-phenyl)-amide]"
≥ 50%,210 to 213 °C,"CCOc1ccc(Cl)cc1NC(=O)Nc1ccc(N2CCN(C(=O)Nc3ccc(OC)cc3C)CC2)cc1 [Example 106, 4-{4-[3-(5-chloro-2-ethoxy-phenyl)-ureido]-phenyl}-piperazine-1-carboxylic acid (4-methoxy-2-methyl-phenyl)-amide]"
≥ 50%,124 to 126 °C,"CCOc1ccc(Cl)cc1NC(=O)Nc1ccc(N2CCN(C(=O)Nc3ccc(C)cc3Cl)CC2)cc1 [Example 107, 4-{4-[3-(5-chloro-2-ethoxy-phenyl)-ureido]-phenyl}-piperazine-1-carboxylic acid (2-chloro-4-methyl-phenyl)-amide]"
≥ 50%,225 to 226 °C,"COc1ccc(NC(=O)N2CCN(c3ccc(NC(=O)Nc4cc(Cl)ccc4OC)cc3)CC2)c(C)c1 [Example 109, 4-{4-[3-(5-chloro-2-methoxy-phenyl)-ureido]-phenyl}-piperazine-1-carboxylic acid (4-methoxy-2-methyl-phenyl)-amide]"
≥ 50%,202 to 203 °C,"CCOc1ccccc1NC(=O)Nc1ccc(N2CCN(C(=O)Nc3ccc(OC)cc3C)CC2)cc1 [Example 110, 4-{4-[3-(2-ethoxy-phenyl)-ureido]-phenyl}-piperazine-1-carboxylic acid (4-methoxy-2-methyl-phenyl)-amide]"
≥ 50%,202 to 204 °C,"CCOc1ccc(C)cc1NC(=O)Nc1ccc(N2CCN(C(=O)Nc3ccc(OC)cc3C)CC2)cc1 [Example 111, 4-{4-[3-(2-ethoxy-5-methyl-phenyl)-ureido]-phenyl}-piperazine-1-carboxylic acid (4-methoxy-2-methyl-phenyl)-amide]"
≥ 50%,186 to 189 °C,"CCOc1ccc(F)cc1NC(=O)Nc1ccc(N2CCN(C(=O)Nc3ccc(OC)cc3C)CC2)cc1 [Example 112, 4-{4-[3-(2-ethoxy-5-fluoro-phenyl)-ureido]-phenyl}-piperazine-1-carboxylic acid (4-methoxy-2-methyl-phenyl)-amide]"
≥ 50%,216 to 218 °C,"COc1ccc(NC(=O)N2CCN(c3ccc(NC(=O)Nc4cc(F)ccc4OC)cc3)CC2)c(C)c1 [Example 113, 4-{4-[3-(5-fluoro-2-methoxy-phenyl)-ureido]-phenyl}-piperazine-1-carboxylic acid (4-methoxy-2-methyl-phenyl)-amide]"
≥ 50%,216 to 218 °C,"COc1ccc(Cl)cc1NC(=O)Nc1ccc(N2CCN(C(=O)Nc3c(C)cccc3C)CC2)cc1 [Example 114, 4-{4-[3-(5-chloro-2-methoxy-phenyl)-ureido]-phenyl}-piperazine-1-carboxylic acid (2,6-dimethyl-phenyl)-amide]"
≥ 50%,156 to 158 °C,"COc1ccc(Cl)cc1NC(=O)Nc1ccc(N2CCN(C(=O)Nc3c(F)cccc3C(F)(F)F)CC2)cc1 [Example 115, 4-{4-[3-(5-chloro-2-methoxy-phenyl)-ureido]-phenyl}-piperazine-1-carboxylic acid (2-fluoro-6-trifluoromethyl-phenyl)-amide]"
≥ 50%,204 to 205 °C,"CCOc1ccccc1NC(=O)Nc1ccc(N2CCN(C(=O)Nc3c(C)cccc3C)CC2)cc1 [Example 116, 4-{4-[3-(2-ethoxy-phenyl)-ureido]-phenyl}-piperazine-1-carboxylic acid (2,6-dimethyl-phenyl)-amide]"
≥ 50%,139 to 141 °C,"CCOc1ccccc1NC(=O)Nc1ccc(N2CCN(C(=O)Nc3c(F)cccc3C(F)(F)F)CC2)cc1 [Example 117, 4-{4-[3-(2-ethoxy-phenyl)-ureido]-phenyl}-piperazine-1-carboxylic acid (2-fluoro-6-trifluoromethyl-phenyl)-amide]"
≥ 50%,222 to 225 °C,"CCOc1ccc(C)cc1NC(=O)Nc1ccc(N2CCN(C(=O)Nc3c(C)cccc3C)CC2)cc1 [Example 118, 4-{4-[3-(2-ethoxy-5-methyl-phenyl)-ureido]-phenyl}-piperazine-1-carboxylic acid (2,6-dimethyl-phenyl)-amide]"
≥ 50%,144 to 146 °C,"CCOc1ccc(C)cc1NC(=O)Nc1ccc(N2CCN(C(=O)Nc3c(F)cccc3C(F)(F)F)CC2)cc1 [Example 119, 4-{4-[3-(2-ethoxy-5-methyl-phenyl)-ureido]-phenyl}-piperazine-1-carboxylic acid (2-fluoro-6-trifluoromethyl-phenyl)-amide]"
≥ 50%,119 to 122 °C,"CCOc1ccc(C)cc1NC(=O)Nc1ccc(N2CCN(C(=O)Nc3ccc(C)cc3Cl)CC2)cc1 [Example 120, 4-{4-[3-(2-ethoxy-5-methyl-phenyl)-ureido]-phenyl}-piperazine-1-carboxylic acid (2-chloro-4-methyl-phenyl)-amide]"
≥ 50%,179 to 181 °C,"CCOc1ccccc1NC(=O)Nc1ccc(N2CCN(C(=O)Nc3ccc(C)cc3Cl)CC2)cc1 [Example 121, 4-{4-[3-(2-ethoxy-phenyl)-ureido]-phenyl}-piperazine-1-carboxylic acid (2-chloro-4-methyl-phenyl)-amide]"
